Measured values taken from patent US20250340575A1, “4-AMINOPYRROLO[2,1-F][1,2,4]TRIAZINES AND PREPARATION AND USES THEREOF” (Biosplice Therapeutics, Inc., priority 2024, published 2025).

target: recombinant DYRK1A kinase (Homo sapiens, UniProt Q13627); assay: DYRK1A kinase assay (Ser/Thr 18 peptide Z-lyte FRET); format: biochemical; conditions: DYRK1A 0.25 μg/mL, ATP 15 μM, Ser/Thr peptide 18 4 μM, one hour at room temperature, 11-point dose-response from 10 μM
Protocol: Representative compounds were screened using the assay procedure for DYRK1A kinase activity as described below.
Each compound was dissolved in DMSO as a 10 mM stock and used to prepare compound source plates. Serial dilution (1:3, 11-point dose-response curves from 10 μM to 0.00016 μM) and compound transfer was performed using the ECHO 550 (Labcyte, Sunnyvale, CA) into 1536-well black-walled round bottom plates (Corning).
The DYRK1A kinase assay was run using the Ser/Thr 18 peptide Z-lyte assay kit according to manufacturer's instructions (Life Technologies—a Division of Thermo-Fisher). This is a non-radioactive assay using fluorescence resonance energy transfer (FRET) between coumarin and fluorescein to detect kinase activity which is represented as a ratio of coumarin emission/fluorescein emission.
Briefly, recombinant DYRK1A kinase, ATP and Ser/Thr peptide 18 were prepared in 1× Kinase buffer to final concentrations of 0.25 μg/mL, 15 μM, and 4 μM respectively. The mixture was allowed to incubate with the representative compounds for one hour at room temperature. All reactions were performed in duplicate. Unphosphorylated (“0% Control”) and phosphorylated (“100% control”) forms of Ser/Thr 18 served as control reactions. Additionally, an 11-point dose-response curve of Staurosporine (1 uM top) was run to serve as a positive compound control.
After incubation, Development Reagent A was diluted in Development Buffer then added to the reaction and allowed to further incubate for one hour at room temperature. The plate was read at Ex 400 Em 455 to detect the coumarin signal and Ex 400 Em 520 to measure the signal (EnVision Multilabel Plate Reader, PerkinElmer).
The Emission ratio (Em) was calculated as a ratio of the coumarin (C) emission signal (at 445 nm)/Fluorescein (F) emission signal (at 520 nm). The percent phosphorylation was then calculated using the following formula: [1−((Em ratio×F100%)−C100%)/((C0%−C100%)+(Em ratio×(F100%−F0%)))]. Dose-response curves were generated, and inhibitory concentration (IC50) values were calculated using non-linear regression curve fit in the Dotmatics' Studies Software (Bishops Stortford, UK).

IC50 [nM] | Compound
1.4 | CC(=O)N1CC[C@@H](Nc2nc(N)c3c(-c4ccc5nc(C)n(CCF)c5n4)c(F)cn3n2)C(F)(F)C1 [Compound 147, (R)-1-(4-((4-Amino-6-fluoro-5-(3-(2-fluoroethyl)-2-methyl-3H-imidazo[4,5-b]pyridin-5-yl)pyrrolo[2,1-f][1,2,4]triazin-2-yl)amino)-3,3-difluoropiperidin-1-yl)ethan-1-one]
0.8 | Cc1nc2ccc(-c3c(F)cn4nc(N[C@@H]5CCN(C6COC6)CC5(F)F)nc(N)c34)nc2n1CCF [Compound 149, (R)—N^2-(3,3-Difluoro-1-(oxetan-3-yl)piperidin-4-yl)-6-fluoro-5-(3-(2-fluoroethyl)-2-methyl-3H-imidazo[4,5-b]pyridin-5-yl)pyrrolo[2,1-f][1,2,4]triazine-2,4-diamine]
15.8 | CNc1nc(N[C@H]2CCN(C3COC3)C[C@H]2F)nn2ccc(-c3ccc4nc(C)n(CCF)c4n3)c12 [Compound 157, N^2-((3R,4S)-3-Fluoro-1-(oxetan-3-yl)piperidin-4-yl)-5-(3-(2-fluoroethyl)-2-methyl-3H-imidazo[4,5-b]pyridin-5-yl)-N^4-methylpyrrolo[2,1-f][1,2,4]triazine-2,4-diamine]
2.2 | CNc1nc(N[C@@H]2CCN(C3COC3)CC2(F)F)nn2ccc(-c3ccc4nc(C)n(CCF)c4n3)c12 [Compound 160, (R)—N^2-(3,3-Difluoro-1-(oxetan-3-yl)piperidin-4-yl)-5-(3-(2-fluoroethyl)-2-methyl-3H-imidazo[4,5-b]pyridin-5-yl)-N^4-methylpyrrolo[2,1-f][1,2,4]triazine-2,4-diamine]
3.1 | CNc1nc(N[C@H]2CC[C@](C)(O)CC2)nn2cc(F)c(-c3ccc4nc(C)n(CCF)c4n3)c12 [Compound 162, (1r,4r)-4-((6-Fluoro-5-(3-(2-fluoroethyl)-2-methyl-3H-imidazo[4,5-b]pyridin-5-yl)-4-(methylamino)pyrrolo[2,1-f][1,2,4]triazin-2-yl)amino)-1-methylcyclohexan-1-ol]
1.3 | CNc1nc(N[C@H]2CCN(C(C)=O)C[C@H]2F)nn2cc(F)c(-c3ccc4nc(C)n(CCF)c4n3)c12 [Compound 163, 1-((3R,4S)-3-Fluoro-4-((6-fluoro-5-(3-(2-fluoroethyl)-2-methyl-3H-imidazo [4,5-b]pyridin-5-yl)-4-(methylamino)pyrrolo[2,1-f][1,2,4]triazin-2-yl)amino)piperidin-1-yl)ethan-1-one]
1.8 | CNc1nc(N[C@H]2CCN(C3COC3)C[C@H]2F)nn2cc(F)c(-c3ccc4nc(C)n(CCF)c4n3)c12 [Compound 164, 6-Fluoro-N^2-((3R,4S)-3-fluoro-1-(oxetan-3-yl)piperidin-4-yl)-5-(3-(2-fluoroethyl)-2-methyl-3H-imidazo[4,5-b]pyridin-5-yl)-N^4-methylpyrrolo[2,1-f][1,2,4]triazine-2,4-diamine]
2.3 | CNc1nc(N[C@@H]2CCN(C)CC2(F)F)nn2cc(F)c(-c3ccc4nc(C)n(CCF)c4n3)c12 [Compound 165, (R)—N^2-(3,3-Difluoro-1-methylpiperidin-4-yl)-6-fluoro-5-(3-(2-fluoroethyl)-2-methyl-3H-imidazo[4,5-b]pyridin-5-yl)-N^4-methylpyrrolo[2,1-f][1,2,4]triazine-2,4-diamine]
2.9 | CNc1nc(N[C@@H]2CCN(C(C)=O)CC2(F)F)nn2cc(F)c(-c3ccc4nc(C)n(CCF)c4n3)c12 [Compound 166, (R)-1-(3,3-Difluoro-4-((6-fluoro-5-(3-(2-fluoroethyl)-2-methyl-3H-imidazo [4,5-b]pyridin-5-yl)-4-(methylamino)pyrrolo[2,1-f][1,2,4]triazin-2-yl)amino)piperidin-1-yl)ethan-1-one]
1.4 | CNc1nc(N[C@@H]2CCN(C3COC3)CC2(F)F)nn2cc(F)c(-c3ccc4nc(C)n(CCF)c4n3)c12 [Compound 168, (R)—N^2-(3,3-Difluoro-1-(oxetan-3-yl)piperidin-4-yl)-6-fluoro-5-(3-(2-fluoroethyl)-2-methyl-3H-imidazo[4,5-b]pyridin-5-yl)-N^4-methylpyrrolo[2,1-f][1,2,4]triazine-2,4-diamine]
2 | CNc1nc(N[C@H]2CCN(C(=O)CO)C[C@H]2F)nn2ccc(-c3ccc4nc(C)n(CC(F)F)c4n3)c12 [Compound 174, 1-((3R,4S)-4-((5-(3-(2,2-Difluoroethyl)-2-methyl-3H-imidazo[4,5-b]pyridin-5-yl)-4-(methylamino)pyrrolo[2,1-f][1,2,4]triazin-2-yl)amino)-3-fluoropiperidin-1-yl)-2-hydroxyethan-1-one]
1.3 | CNc1nc(N[C@@H]2CCN(C(=O)CO)CC2(F)F)nn2ccc(-c3ccc4nc(C)n(CC(F)F)c4n3)c12 [Compound 175, (R)-1-(4-((5-(3-(2,2-Difluoroethyl)-2-methyl-3H-imidazo[4,5-b]pyridin-5-yl)-4-(methylamino)pyrrolo[2,1-f][1,2,4]triazin-2-yl)amino)-3,3-difluoropiperidin-1-yl)-2-hydroxyethan-1-one]
1.5 | CNc1nc(N[C@@H]2CCN(C(C)=O)CC2(F)F)nn2cc(F)c(-c3ccc4nc(C)n(CC(F)F)c4n3)c12 [Compound 177, (R)-1-(4-((5-(3-(2,2-Difluoroethyl)-2-methyl-3H-imidazo[4,5-b]pyridin-5-yl)-6-fluoro-4-(methylamino)pyrrolo[2,1-f][1,2,4]triazin-2-yl)amino)-3,3-difluoropiperidin-1-yl)ethan-1-one]
4.9 | CCn1nnc2ccc(-c3c(F)cn4nc(N[C@H]5CCN(C6COC6)C[C@H]5F)nc(NC)c34)nc21 [Compound 214, 5-(3-Ethyl-3H-[1,2,3]triazolo[4,5-b]pyridin-5-yl)-6-fluoro-N^2-((3R,4S)-3-fluoro-1-(oxetan-3-yl)piperidin-4-yl)-N^4-methylpyrrolo[2,1-f][1,2,4]triazine-2,4-diamine]
2.3 | CCn1nnc2ccc(-c3c(F)cn4nc(N[C@@H]5CCN(C)CC5(F)F)nc(NC)c34)nc21 [Compound 215, (R)—N^2-(3,3-Difluoro-1-methylpiperidin-4-yl)-5-(3-ethyl-3H-[1,2,3]triazolo [4,5-b]pyridin-5-yl)-6-fluoro-N^4-methylpyrrolo[2,1-f][1,2,4]triazine-2,4-diamine]
2.6 | CCn1nnc2ccc(-c3c(F)cn4nc(N[C@@H]5CCN(C(C)=O)CC5(F)F)nc(NC)c34)nc21 [Compound 216, (R)-1-(4-((5-(3-Ethyl-3H-[1,2,3]triazolo[4,5-b]pyridin-5-yl)-6-fluoro-4-(methylamino)pyrrolo[2,1-f][1,2,4]triazin-2-yl)amino)-3,3-difluoropiperidin-1-yl)ethan-1-one]
5.2 | Nc1nc(N[C@H]2CCN(C3COC3)C[C@H]2F)nn2ccc(-c3ccc4nnn(CCF)c4n3)c12 [Compound 220, N^2-((3R,4S)-3-Fluoro-1-(oxetan-3-yl)piperidin-4-yl)-5-(3-(2-fluoroethyl)-3H-[1,2,3]triazolo[4,5-b]pyridin-5-yl)pyrrolo[2,1-f][1,2,4]triazine-2,4-diamine]
2.8 | CN1CC[C@@H](Nc2nc(N)c3c(-c4ccc5nnn(CCF)c5n4)ccn3n2)C(F)(F)C1 [Compound 221, (R)—N^2-(3,3-Difluoro-1-methylpiperidin-4-yl)-5-(3-(2-fluoroethyl)-3H-[1,2,3]triazolo[4,5-b]pyridin-5-yl)pyrrolo[2,1-f][1,2,4]triazine-2,4-diamine]
3.2 | CC(=O)N1CC[C@@H](Nc2nc(N)c3c(-c4ccc5nnn(CCF)c5n4)ccn3n2)C(F)(F)C1 [Compound 222, (R)-1-(4-((4-Amino-5-(3-(2-fluoroethyl)-3H-[1,2,3]triazolo[4,5-b]pyridin-5-yl)pyrrolo[2,1-f][1,2,4]triazin-2-yl)amino)-3,3-difluoropiperidin-1-yl)ethan-1-one]
8.1 | CNc1nc(NC2CCC(F)(F)CC2)nn2ccc(-c3ccc4nnn(CCF)c4n3)c12 [Compound 233, N^2-(4,4-Difluorocyclohexyl)-5-(3-(2-fluoroethyl)-3H-[1,2,3]triazolo[4,5-b]pyridin-5-yl)-N^4-methylpyrrolo[2,1-f][1,2,4]triazine-2,4-diamine]
0.8 | CNc1nc(N[C@H]2CC[C@](C)(O)CC2)nn2ccc(-c3ccc4nnn(CCF)c4n3)c12 [Compound 234, (1r,4r)-4-((5-(3-(2-Fluoroethyl)-3H-[1,2,3]triazolo[4,5-b]pyridin-5-yl)-4-(methylamino)pyrrolo[2,1-f][1,2,4]triazin-2-yl)amino)-1-methylcyclohexan-1-ol]
2 | CNc1nc(N[C@H]2CCN(C(C)=O)C[C@H]2F)nn2ccc(-c3ccc4nnn(CCF)c4n3)c12 [Compound 235, 1-((3R,4S)-3-Fluoro-4-((5-(3-(2-fluoroethyl)-3H-[1,2,3]triazolo[4,5-b]pyridin-5-yl)-4-(methylamino)pyrrolo[2,1-f][1,2,4]triazin-2-yl)amino)piperidin-1-yl)ethan-1-one]
